Earlier results on 1 compound are cited in PubChem BioAssay AID1259409 (Chemical Carcinogenesis Research Information System (CCRIS), 2018).

This series deals with rodent chemically induced tumor inhibition, incidence and multiplicity. The series can be described thus: CCRIS tumor inhibitor studies.

Turning to `COc1ccc2[nH]cc(CCNC(C)=O)c2c1`, the “tumour outcome (control, treated, inhibition, significance)” value is, setting by setting: (Carcinogen: 1,2-DIMETHYLHYDRAZINE [540-73-8], Dose [Inhibitor]: 20 UG/ML IN DRINKING WATER 14 HR/D AT NIGHT TIME FOR 6 MONTHS (STUDY DURATION: 6 MONTHS), Route [Inhibitor]: ORAL, Species: RAT, Strain/Sex: LIO/FEMALE, Target Tissue: Type of Lesion: ASCENDING COLON: TUMOR, Dose [Carcinogen]: 21 MG/KG BW 1X/WK FOR 15 WK (STUDY DURATION: 6 MONTHS), Promoter: NONE) 23/25 (92.0%), 15/23 (65.2%), 29%, p<0.01; (Carcinogen: 1,2-DIMETHYLHYDRAZINE [540-73-8], Dose [Inhibitor]: 20 UG/ML IN DRINKING WATER 14 HR/D AT NIGHT TIME FOR 6 MONTHS (STUDY DURATION: 6 MONTHS), Route [Inhibitor]: ORAL, Species: RAT, Strain/Sex: LIO/FEMALE, Target Tissue: Type of Lesion: DESCENDING COLON: TUMOR, Dose [Carcinogen]: 21 MG/KG BW 1X/WK FOR 15 WK (STUDY DURATION: 6 MONTHS), Promoter: NONE) 25/25 (100.0%), 23/23 (100.0%), 0%, not significant; (Carcinogen: 1,2-DIMETHYLHYDRAZINE [540-73-8], Dose [Inhibitor]: 20 UG/ML IN DRINKING WATER 14 HR/D AT NIGHT TIME FOR 6 MONTHS (STUDY DURATION: 6 MONTHS), Route [Inhibitor]: ORAL, Species: RAT, Strain/Sex: LIO/FEMALE, Target Tissue: Type of Lesion: DUODENUM: TUMOR, Dose [Carcinogen]: 21 MG/KG BW 1X/WK FOR 15 WK (STUDY DURATION: 6 MONTHS), Promoter: NONE) 8/25 (32.0%), 5/23 (21.7%), 32%, not significant; (Carcinogen: 1,2-DIMETHYLHYDRAZINE [540-73-8], Dose [Inhibitor]: 20 UG/ML IN DRINKING WATER 14 HR/D AT NIGHT TIME FOR 6 MONTHS (STUDY DURATION: 6 MONTHS), Route [Inhibitor]: ORAL, Species: RAT, Strain/Sex: LIO/FEMALE, Target Tissue: Type of Lesion: JEJUNUM AND ILIUM: TUMOR, Dose [Carcinogen]: 21 MG/KG BW 1X/WK FOR 15 WK (STUDY DURATION: 6 MONTHS), Promoter: NONE) 4/25 (16.0%), 1/23 (4.3%), 73%, p<0.05; (Carcinogen: 1,2-DIMETHYLHYDRAZINE [540-73-8], Dose [Inhibitor]: 20 UG/ML IN DRINKING WATER 14 HR/D AT NIGHT TIME FOR 6 MONTHS (STUDY DURATION: 6 MONTHS), Route [Inhibitor]: ORAL, Species: RAT, Strain/Sex: LIO/FEMALE, Target Tissue: Type of Lesion: RECTUM: TUMOR, Dose [Carcinogen]: 21 MG/KG BW 1X/WK FOR 15 WK (STUDY DURATION: 6 MONTHS), Promoter: NONE) 11/25 (44.0%), 11/23 (47.8%), -9%, not significant; (Carcinogen: 7, 12-DIMETHYLBENZ(A)ANTHRACENE [57-97-6], Dose [Inhibitor]: 20 UG/ML IN DRINKING WATER, 17 HR/D BEGINNING 5 D BEFORE FIRST CARCINOGEN DOSE FOR 13 WK (STUDY DURATION: 13 WK), Route [Inhibitor]: ORAL, Species: RAT, Strain/Sex: SPRAGUE-DAWLEY/FEMALE, Target Tissue: Type of Lesion: MAMMARY GLAND: TUMOR, Dose [Carcinogen]: 10 MG THREE TIMES BETWEEN POSTNATAL DAYS 45-59) 23/24 (95.8%), 21/28 (75%), 21.5%, p<0.05. The “tumour outcome (control, treated, inhibition, significance)” value reads like this: (Carcinogen: 7,12-DIMETHYLBENZ[A]ANTHRACENE [57-97-6], Dose [Inhibitor]: 10 MG/KG BW DAILY BETWEEN 45 AND 59 D OF AGE, Route [Inhibitor]: INTRAGASTRIC (GAVAGE) IN HYDROXYETHYLCELLULOSE SOLUTION, Species: RAT, Strain/Sex: SPRAGUE-DAWLEY/FEMALE, Target Tissue: Type of Lesion: MAMMARY: ADENOCARCINOMA, Dose [Carcinogen]: 75 MG/KG BW IN SESAME OIL AT 60 D OF AGE (STUDY DURATION: 1 YR)) 75%, 43%, 43%, p=0.04 (at 6 mo); (Carcinogen: 7,12-DIMETHYLBENZ[A]ANTHRACENE [57-97-6], Dose [Inhibitor]: 10 MG/KG BW DAILY FOR 6 MO AFTER CARCINOGEN ADMINISTRATION, Route [Inhibitor]: INTRAGASTRIC (GAVAGE), Species: RAT, Strain/Sex: SPRAGUE-DAWLEY/FEMALE, Target Tissue: Type of Lesion: MAMMARY: ADENOCARCINOMA, Dose [Carcinogen]: 75 MG/KG BW AT 55 D OF AGE (STUDY DURATION: 1 YR)) 75%, 35%, 53%, p=0.01 (at 6 mo); (Carcinogen: 7,12-DIMETHYLBENZ[A]ANTHRACENE [57-97-6], Dose [Inhibitor]: 20 UG/ML IN DRINKING WATER 15 HR/D FOR 4 MONTHS BEGINNING AT THE TIME OF THE FIRST CARCINOGEN DOSE (STUDY DURATION: 6 MO, Route [Inhibitor]: ORAL, Species: MOUSE, Strain/Sex: CBA/FEMALE, Target Tissue: Type of Lesion: VAGINA AND CERVIX: TUMOR, Dose [Carcinogen]: 0.1% IN TRIETHYLENEGLYCOL IN A POLYURETHANE SPONGE 3 HR/D 2 D/WK FOR 2 MONTHS (STUDY DURATION: 6 MO), Promoter: NONE) 7/20 (35%), 3/20 (15%), 57%, not significant; (Carcinogen: 7,12-DIMETHYLBENZ[A]ANTHRACENE, 57-97-6, Dose [Inhibitor]: 0, 20 UG/ML IN DRINKING WATER 17 HR/D 4 D/WK FOR 26 WK BEGINNING 45 D OF AGE (STUDY DURATION: 26 WK), Route [Inhibitor]: ORAL, Species: RAT, Strain/Sex: SD/FEMALE, Target Tissue: Type of Lesion: MAMMARY GLAND: TUMOR, Dose [Carcinogen]: 10 UG/ANIMAL IN CORN OIL INTRAGASTRICALLY ON 45, 50, 55 D OF AGE) 100%, 42%, 58%, p<0.001; (Carcinogen: 7,12-DIMETHYLBENZ[A]ANTHRACENE, 57-97-6, Dose [Inhibitor]: 0, 20 UG/ML IN DRINKING WATER FOR 17 HR/D FOR THE DURATION OF STUDY (STUDY DURATION: 180 D), Route [Inhibitor]: ORAL, Species: RAT, Strain/Sex: SPRAGUE-DAWLEY/FEMALE, Target Tissue: Type of Lesion: MAMMARY GLAND: TUMOR, Dose [Carcinogen]: 20 MG/ANIMAL GAVAGE ONCE 10 D POST INHIBITOR TREATMENT (STUDY DURATION: 178 D), Promoter: NONE) 16/24 (66.6%), 15/25 (60.0%), 10%, not significant; (Carcinogen: GAMMA RAYS: 7,12-DIMETHYLBENZ[A]ANTHRACENE [57-97-6], Dose [Inhibitor]: 0, 100 UG/ML IN DRINKING WATER FOR 28 WK (STUDY DURATION: 28 WK), Route [Inhibitor]: ORAL, Species: RAT, Strain/Sex: WISTAR: HAN/FEMALE, Target Tissue: Type of Lesion: MAMMARY GLAND: TUMOR, Dose [Carcinogen]: 96 MGY FORM CO-60 SOURCE FOR 2 WK (TOTAL ACCUMULATED DOSE 1.44 GY), THEN 3 DOSES OF 10 MG DMBA BY GAVAGE (STUDY DURATION, Promoter: NONE) 48.3%, 50.0%, -3.5%, not significant.
